The target of one series is T1, human EGF-R (Homo sapiens, UniProt P00533).
T1 construct: expressed in transfected cells; host or cells: F/L-HERc cells (murine IL-3-dependent FDC-P1 line transduced with retroviral vector LXSN carrying human EGF-R cDNA; packaging line GP+E86)
T1 sequence (P00533 25-1210): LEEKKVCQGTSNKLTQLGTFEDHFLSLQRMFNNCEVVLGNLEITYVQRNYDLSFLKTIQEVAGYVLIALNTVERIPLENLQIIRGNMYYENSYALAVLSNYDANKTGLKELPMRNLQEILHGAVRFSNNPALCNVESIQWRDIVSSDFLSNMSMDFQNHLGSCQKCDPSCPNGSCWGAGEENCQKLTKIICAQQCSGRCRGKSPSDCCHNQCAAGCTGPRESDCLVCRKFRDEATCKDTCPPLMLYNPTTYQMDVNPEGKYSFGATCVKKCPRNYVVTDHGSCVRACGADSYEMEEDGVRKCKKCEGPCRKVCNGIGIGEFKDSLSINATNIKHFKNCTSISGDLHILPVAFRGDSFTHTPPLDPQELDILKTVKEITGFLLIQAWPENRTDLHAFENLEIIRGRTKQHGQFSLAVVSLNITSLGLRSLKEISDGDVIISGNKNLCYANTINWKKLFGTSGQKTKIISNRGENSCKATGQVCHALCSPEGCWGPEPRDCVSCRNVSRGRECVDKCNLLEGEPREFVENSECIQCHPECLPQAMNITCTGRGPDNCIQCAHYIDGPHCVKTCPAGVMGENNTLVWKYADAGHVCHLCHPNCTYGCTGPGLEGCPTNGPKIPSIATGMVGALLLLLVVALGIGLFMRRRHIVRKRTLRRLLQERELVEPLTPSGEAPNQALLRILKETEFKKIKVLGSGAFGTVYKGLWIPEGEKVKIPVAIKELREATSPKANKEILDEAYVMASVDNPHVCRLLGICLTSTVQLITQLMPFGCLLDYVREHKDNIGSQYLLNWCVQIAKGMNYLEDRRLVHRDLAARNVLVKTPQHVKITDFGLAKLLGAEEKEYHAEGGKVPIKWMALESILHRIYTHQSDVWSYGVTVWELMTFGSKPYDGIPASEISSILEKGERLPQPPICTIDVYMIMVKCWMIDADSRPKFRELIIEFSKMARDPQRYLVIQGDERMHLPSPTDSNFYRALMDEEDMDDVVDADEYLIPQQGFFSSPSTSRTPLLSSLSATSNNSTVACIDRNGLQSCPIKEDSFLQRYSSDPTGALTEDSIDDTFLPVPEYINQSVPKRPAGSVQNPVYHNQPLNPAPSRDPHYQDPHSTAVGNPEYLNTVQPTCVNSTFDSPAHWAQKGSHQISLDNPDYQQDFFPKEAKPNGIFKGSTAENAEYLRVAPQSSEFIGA
As to the kind of experiment: Inhibition of EGF-dependent proliferation of F/L-HERc cells. As to conditions: F/L-HERc cells (murine IL-3-dependent line expressing human EGF-R), stimulated with EGF 20 ng/ml, 48 hours, Cell Titer 96 AQueous assay. It is filed as cell-based. From the text:
A cell line of murine origin dependent on interleukin-3-(IL-3) which was genetically modified to express functional human EGF-R was used here. The proliferation of these cells known as F/L-HERc can therefore be stimulated either by murine IL-3 or by EGF (cf. T. von Rüiden et al. in EMBO J. 7, 2749-2756 (1988) and J. H. Pierce et al. in Science 239, 628-631 (1988)).
The starting material used for the F/L-HERc cells was the cell line FDC-P1, the production of which has been described by T. M. Dexter et al., J. Exp. Med. 152 1036-1047 (1980). Alternatively, however, other growth-factor-dependent cells may also be used (cf., e.g., J. H. Pierce et al., Science 239, 628-631 (1988); H. Shibuya et al., Cell 70, 57-67 (1992); and W. S. Alexander et al., EMBO J. 10, 3683-3691 (1991)). For expressing the human EGF-R cDNA (cf. A. Ullrich et al., Nature 309, 418-425 (1984)) recombinant retroviruses were used as described by T. von Rüiden et al., EMBO J. 7, 2749-2756 (1988), except that the retroviral vector LXSN (cf. A. D. Miller et al., BioTechniques 7, 980-990 (1989)) was used for the expression of the EGF-R cDNA and the line GP+E86 (cf. D. Markowitz et al., J. Virol. 62, 1120-1124 (1988)) was used as the packaging cell.
F/L-HERc cells were cultivated in RPMI/1640 medium (BioWhittaker), supplemented with 10% fetal calf serum (FCS, Boehringer Mannheim), 2 mM glutamine (BioWhittaker), standard antibiotics and 20 ng/ml of human EGF (Promega), at 37° C. and 5% CO2. In order to investigate the inhibitory activity of the compounds according to the invention, 1.5×10^4 cells per well were cultivated in triplicate in 96-well dishes in the above medium (200 μl), the cell proliferation being stimulated with either EGF (20 ng/ml) or murine IL-3. The IL-3 used was obtained from culture supernatants of the cell line X63/0 mIL-3 (cf. H. Karasuyama et al., Eur. J. Immunol. 18, 97-104 (1988)). The compounds according to the invention were dissolved in 100% dimethylsulfoxide (DMSO) and added to the cultures in various dilutions, the maximum DMSO concentration being 1%. The cultures were incubated for 48 hours at 37° C.
In order to determine the inhibitory activity of the compounds according to the invention the relative cell number was measured in O.D. units using the Cell Titer 96™ AQueous Non-Radioactive Cell Proliferation Assay (Promega). The relative cell number was calculated as a percentage of the control (F/LHERc cells without inhibitor) and the concentration of active substance which inhibits the proliferation of the cells by 50% (IC50) was derived therefrom.
Turning to `O=C(C=CCN1CCN2CC(=O)OCC2C1)Nc1cc2c(Nc3ccc(F)c(Cl)c3)ncnc2cc1OCC1CC1` (stereo not drawn) [4(3), 4-[(3-chloro-4-fluorophenyl)amino]-6-{[4-(3-oxoperhydropyrazino[2,1-c][1,4]oxazin-8-yl)-1-oxo-2-buten-1-yl]amino}-7-cyclopropylmethoxyquinazoline], half-maximal inhibition (IC50) required 10 nM.
`O=C(C=CCN1CCN(CCSC2CCOC2=O)CC1)Nc1cc2c(Nc3ccc(F)c(Cl)c3)ncnc2cc1OCC1CC1` (stereo not drawn) [Example 4, 4-[(3-chloro-4-fluorophenyl)amino]-6-{[4-(4-{2-[(2-oxotetrahydrofuran-3-yl)sulfanyl]ethyl}piperazin-1-yl)-1-oxo-2-buten-1-yl]amino}-7-cyclopropylmethoxyquinazoline] returned an IC50 of 3 nM.
For `O=C(C=CCN1CCN(C2CCOC2=O)CC1)Nc1cc2c(Nc3ccc(F)c(Cl)c3)ncnc2cc1OCC1CC1` (stereo not drawn) [Example 1, 4-[(3-chloro-4-fluorophenyl)amino]-6-({4-[4-(2-oxotetrahydrofuran-3-yl)piperazin-1yl]-1-oxo-2-buten-1-yl}amino)-7-cyclopropylmethoxyquinazoline], the IC50 worked out at 0.05 nM.
For `O=C(C=CCN1CCN(C2COC(=O)C2)CC1)Nc1cc2c(Nc3ccc(F)c(Cl)c3)ncnc2cc1OCC1CC1` (stereo not drawn) [Example 2, 4-[(3-chloro-4-fluorophenyl)amino]-6-({4-[4-(2-oxotetrahydrofuran-4-yl)piperazin-1-yl]-1-oxo-2-buten-1-yl}amino)-7-cyclopropylmethoxyquinazoline], 0.6 nM corresponded to half-maximal inhibition (IC50).

Tested on in the next series: not given
Test: not given
Settings: not given
`O=C(C=CCN1CCN(C2CCOC2=O)CC1)Nc1cc2c(Nc3ccc(F)c(Cl)c3)ncnc2cc1OCC1CC1` (stereo not drawn) [Example 1, 4-[(3-chloro-4-fluorophenyl)amino]-6-({4-[4-(2-oxotetrahydrofuran-3-yl)piperazin-1yl]-1-oxo-2-buten-1-yl}amino)-7-cyclopropylmethoxyquinazoline] returned a melting point of 130 to 131 °C.
The same measure, in the same setting: the result for `O=C(C=CCN1CCN(C(=O)[C@@H]2CCC(=O)O2)CC1)Nc1cc2c(Nc3ccc(F)c(Cl)c3)ncnc2cc1OCC1CC1` [Example 3, (S)-4-[(3-chloro-4-fluorophenyl)amino]-6-[(4-{4-[(5-oxotetrahydrofuran-2-yl)carbonyl]piperazin-1-yl}-1-oxo-2-buten-1-yl)amino]-7-cyclopropylmethoxyquinazoline] reads 155 to 157 °C.

The values are drawn from US6627634B2, “Bicyclic heterocycles, pharmaceutical compositions containing them, their use, and processes for preparing them” (Boehringer Ingelheim Pharma KG, priority 2000, dated 2003).
